Counter-ions that a name gives are not always drawn.
System: 4T1 cells
Experiment: Cytotoxicity of doxorubicin-loaded CLENs (SRB assay)
Assay type: cell-based, murine
Details: 24 h, free doxorubicin 0.5 μmol/ml
Description: 4T1 cells were seeded at 1×10^4 per ml in a 48-well plate. Cells were exposed to different concentrations of doxorubicin-loaded CLENs (4T1, BT-20, and SKBR-3). SRB assay was used to determine percent of cell viability 24 hours following exposure to doxorubicin (5 mol %). Error bars indicate mean±S.D. (n=6).
Sulforhodamine B (SRB) assay was used to determine percent viability of control based on the amount of basic proteins in viable cells following exposure to different CLENs. Cells were seeded at 1×10^4 per ml in a 48-well plate. Columns of cells in the 48 well plate were exposed to either doxil, free doxorubicin, SKBR-3, BT-20 or 4T1 CLENs-loaded with doxorubicin (5 mol %). […] Finally, 1 mL of 1×PBS was added to each well and the plate was analyzed using a fluorescence microplate reader. The fluorescence intensity was measured at excitation wavelength of 540/20 nm and emission wavelength of 590/20 nm using FLX 800 Fluorescence Microplate Reader (Bio-tech Instruments, Winooski, VT).
Enhanced cellular uptake and selective drug targeting are important features of a drug delivery system, but how each translates overall to therapy is critical to success. For this reason, cytotoxicity of three different doxorubicin-loaded CLENs was evaluated for 4T1, BT-20 and SKBR-3 variety, doxil, and free doxorubicin (0.5 μmol/ml) against the growth of 4T1 cells in vitro. […]

`COc1cccc2c1C(=O)c1c(O)c3c(c(O)c1C2=O)C[C@@](O)(C(=O)CO)C[C@@H]3O[C@H]1C[C@H](N)[C@H](O)[C@H](C)O1` [free doxorubicin, Doxorubicin hydrochloride] was tested, and the “cytotoxicity against growth of 4T1 cells (comparison in words)” value was “No significant difference in cytotoxicity”.

Reference: patent US12714671B2, “Cell membrane lipid-extracted nanoparticles (CLENs) for selective targeting, image analysis and cancer therapy” (priority 2018, dated 2026)
